From patent US11530226B2, “Azepane inhibitors of menin-MLL interaction” (Janssen Pharmaceutica NV, priority 2016, dated 2022)
Where two headings read alike, the source gives them in different places.

Tests used:
[1] = biological target: T1, terbium chelate-labeled menin / FITC-MBM1 peptide (Menin/MLL) (Homo sapiens, UniProt O00255, T541A); test: Menin/MLL homogenous time-resolved fluorescence (HTRF) assay; type: binding; conditions: read-out: (2) Menin HTRF assay (IC50 (nM))
T1 construct: Menin (a. a. l-610-6×his tag) was labeled with terbium cryptate as follows
T1 sequence (O00255 with tags, fused parts or gaps T541A): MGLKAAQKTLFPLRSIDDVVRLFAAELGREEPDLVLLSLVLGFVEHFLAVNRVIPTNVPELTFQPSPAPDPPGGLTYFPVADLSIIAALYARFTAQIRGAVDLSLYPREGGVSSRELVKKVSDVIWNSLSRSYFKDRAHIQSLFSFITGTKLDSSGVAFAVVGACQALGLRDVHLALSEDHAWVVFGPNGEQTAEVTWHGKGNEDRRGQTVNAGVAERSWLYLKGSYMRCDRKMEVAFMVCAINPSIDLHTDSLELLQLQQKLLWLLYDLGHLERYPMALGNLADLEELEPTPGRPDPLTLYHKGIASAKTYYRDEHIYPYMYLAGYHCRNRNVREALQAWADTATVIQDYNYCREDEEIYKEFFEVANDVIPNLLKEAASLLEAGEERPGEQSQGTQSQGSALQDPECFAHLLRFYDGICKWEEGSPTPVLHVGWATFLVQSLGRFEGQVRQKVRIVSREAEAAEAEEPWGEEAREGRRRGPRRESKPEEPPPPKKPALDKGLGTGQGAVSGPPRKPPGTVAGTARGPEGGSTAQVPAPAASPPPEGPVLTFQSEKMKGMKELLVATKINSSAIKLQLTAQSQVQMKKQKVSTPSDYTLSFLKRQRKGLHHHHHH
How it was run: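 Terbium cryptate-labeled menin (aa 1-610, 6×His), 100 pM, preincubated 5 min with compound, then 75 nM FITC-MBM1 peptide added for 15 min at ambient temperature. Buffer: 40 mM Tris pH 7.5, 50 mM NaCl, 1 mM DTT, 0.05% Pluronic F-127, 0.5% DMSO. HTRF 520/490 ratio; 11-point threefold titration from 25 μM, IC50 from % inhibition curve.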

MV-4-1 1 cells (MLL-AF4) = test: Proliferation assay (spheroid-like growth, 8 d, live-cell imaging), MV-4-11; type: cell-based, human; conditions: MV-4-11 cells, absolute IC50 from AUC of confluence, read-out: (3) Spheroid assay MV-4-11 (IC50 (μM))
How it was run: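 Cells seeded in ultra-low attachment wells (1,500 MV-4-11, 300 MOLM14, 750 K562) with compound, 0.3% DMSO, grown 8 d at 37° C. Confluence imaged every four hours; AUC of confluence versus time, relative to vehicle, fitted for absolute IC50.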

MOLM14 cells (MLL-AF9) = test: Proliferation assay (spheroid-like growth, 8 d, live-cell imaging), MOLM14; type: cell-based, human; conditions: absolute IC50 from AUC of confluence, read-out: (3) Spheroid assay MOLM14 (IC50 (μM))
Protocol: The anti-proliferative effect of menin/MLL protein/protein interaction inhibitor test compounds was assessed in human leukemia cell lines. The cell lines MV-4-1 1 and MOLM14 harbor MEL translocations and express the MEL fusion proteins MLL-AF4 and MLL-AF9, respectively, as well as the wildtype protein from the second allele. […] K562 was used as a control cell line containing two MLL wildtype alleles in order to exclude compounds that display general cytotoxic effects.
MV-4-1 1 and MOLM14 were cultured in RPMI-1640 (Sigma Aldrich) supplemented with 10% fetal bovine serum (HyClone), 2 mM L-glutamine (Sigma Aldrich) and 50 μg/ml gentamycin (Gibco). K562 were propagated in RPMI-1640 (Sigma Aldrich) supplemented with 20% fetal bovine serum (HyClone), 2 mM L-glutamine (Sigma Aldrich) and 50 μg/ml gentamycin (Gibco).
In order to assess the anti-proliferative effects, 1,500 MV-4-1 1, 300 MOLM14 or 750 K562 cells were seeded in 200 μl media per well in 96-well round bottom, ultra-low attachment plates (Costar, catalogue number 7007). Cell seeding numbers were chosen based on growth curves to ensure linear growth throughout the experiment. Test compounds were added at different concentrations and the DMSO content was normalized to 0.3%>. Cells were incubated for 8d at 37° C. and 5% C02. Spheroid like growth was monitored in real-time by live-cell imaging (IncuCyteZOOM, Essenbio, 4× objective) acquiring one image every four hours for 8d. Confluence (%) as a measure of spheroid size was determined using an integrated analysis tool.
In order to determine the cumulative effect of the test compounds over time, the area under the curve (AUC) in a plot of confluence against time was calculated. Confluence at the beginning of the experiment (t=0) was used as baseline for the AUC calculation.
Absolute IC50 values were calculated according to the following procedure: % Control=(AUC sample/AUC control)*100 AUC control=mean AUC of control values(cells without compound/DMSO as vehicle control)
A non-linear curve fit was applied using the least squares (ordinary) fit method to the plot of % control versus compound concentration. Based on this, the absolute IC50 value (half maximal inhibitory concentration of the test compound causing an anti-proliferative effect of 50% relative to the vehicle control) was calculated.

| IC50 [1] | IC50 (MV-4-1 1 cells (MLL-AF4)) | IC50 (MOLM14 cells (MLL-AF9); Homo sapiens, MOLM-14, 192 h) | IC50 (MOLM14 cells (MLL-AF9)) | IC50 (MV-4-1 1 cells (MLL-AF4); Homo sapiens, MV4-11, 192 h) | SMILES |
| --- | --- | --- | --- | --- | --- |
| 50 nM | 2.5 µM | 11.3 µM | – | – | CC(C)CNC1CCCN(c2ncnc3sc(CC(F)(F)F)cc23)CC1 (single isomer, unassigned) [Compound B1A, N-isobutyl-1-(6-(2,2,2-trifluoroethyl)thieno[2,3-d]pyrimidin-4-yl)azepan-4-amine] |
| 788 nM | 8.9 µM | – | > 15 µM | – | CC(C)CNC1CCCN(c2ncnc3sc(CC(F)(F)F)cc23)CC1 (single isomer, unassigned) [Compound B1B, N-isobutyl-1-(6-(2,2,2-trifluoroethyl)thieno[2,3-d]pyrimidin-4-yl)azepan-4-amine] |
| 14 nM | – | 3.1 µM | – | 0.44 µM | FC(F)(F)Cc1cc2c(N3CCC[C@@H](NCc4ccccc4)CC3)ncnc2s1 [Compound 3, (R)N-benzyl-1-(6-(2,2,2-trifluoroethyl)thieno[2,3-d]pyrimidin-4-yl)azepan-4-amine] |
| 330 nM | – | 7.6 µM | – | 2.9 µM | FC(F)(F)Cc1cc2c(N3CCC[C@H](NCc4ccccc4)CC3)ncnc2s1 [Compound 4, (S)-N-benzyl-1-(6-(2,2,2-trifluoroethyl)thieno[2,3-d]pyrimidin-4-yl)azepan-4-amine] |
